Assay: xn = mol fraction of the nth substance listed
Conditions: 100 kPa, Liquid; for mass density: Vibrating tube method; for viscosity: Falling or rolling sphere viscometry

CCCCCCCCCCC [undecane] + CCCCCCO
Conditions | mass density [kg/m3] | viscosity [mPa·s]
323.15 K, x1 = 0.1011 | 783.63 | –
323.15 K, x1 = 0.1989 | 772.51 | –
323.15 K, x1 = 0.2998 | 762.31 | –
323.15 K, x1 = 0.4001 | 753.47 | –
323.15 K, x1 = 0.4994 | 745.77 | –
323.15 K, x1 = 0.6004 | 738.74 | –
323.15 K, x1 = 0.6989 | 732.65 | –
323.15 K, x1 = 0.8001 | 727.06 | –
323.15 K, x1 = 0.8991 | 722.24 | –
323.15 K, x1 = 1 | 718.11 | –
328.15 K, x1 = 0.1011 | 779.82 | 1.612
328.15 K, x1 = 0.1989 | 768.66 | 1.374
328.15 K, x1 = 0.2998 | 758.44 | 1.18
328.15 K, x1 = 0.4001 | 749.58 | 1.039
328.15 K, x1 = 0.4994 | 741.89 | 0.93
328.15 K, x1 = 0.6004 | 734.86 | 0.862
328.15 K, x1 = 0.6989 | 728.77 | 0.793
328.15 K, x1 = 0.8001 | 723.2 | 0.747
328.15 K, x1 = 0.8991 | 718.41 | 0.724
328.15 K, x1 = 1 | 714.39 | 0.692
333.15 K, x1 = 0.1011 | 775.97 | 1.466
333.15 K, x1 = 0.1989 | 764.78 | 1.24
333.15 K, x1 = 0.2998 | 754.53 | 1.073
333.15 K, x1 = 0.4001 | 745.66 | 0.955
333.15 K, x1 = 0.4994 | 737.97 | 0.859
333.15 K, x1 = 0.6004 | 730.93 | 0.801
333.15 K, x1 = 0.6989 | 724.87 | 0.738
333.15 K, x1 = 0.8001 | 719.31 | 0.699
333.15 K, x1 = 0.8991 | 714.55 | 0.681
333.15 K, x1 = 1 | 710.68 | 0.651
338.15 K, x1 = 0.1011 | 772.08 | 1.318
338.15 K, x1 = 0.1989 | 760.84 | 1.124
338.15 K, x1 = 0.2998 | 750.57 | 0.982
338.15 K, x1 = 0.4001 | 741.7 | 0.878
338.15 K, x1 = 0.4994 | 734.01 | 0.796
338.15 K, x1 = 0.6004 | 726.99 | 0.744
338.15 K, x1 = 0.6989 | 720.93 | 0.691
338.15 K, x1 = 0.8001 | 715.39 | 0.656
338.15 K, x1 = 0.8991 | 710.68 | 0.641
338.15 K, x1 = 1 | 706.95 | 0.615
343.15 K, x1 = 0.1011 | 768.13 | 1.189
343.15 K, x1 = 0.1989 | 756.86 | 1.025
343.15 K, x1 = 0.2998 | 746.58 | 0.901
343.15 K, x1 = 0.4001 | 737.7 | 0.811
343.15 K, x1 = 0.4994 | 730.01 | 0.739
343.15 K, x1 = 0.6004 | 723 | 0.695
343.15 K, x1 = 0.6989 | 716.95 | 0.647
343.15 K, x1 = 0.8001 | 711.44 | 0.616
343.15 K, x1 = 0.8991 | 706.79 | 0.604
343.15 K, x1 = 1 | 703.22 | 0.58
348.15 K, x1 = 0.1011 | 764.12 | 1.054
348.15 K, x1 = 0.1989 | 752.83 | 0.934
348.15 K, x1 = 0.2998 | 742.54 | 0.828
348.15 K, x1 = 0.4001 | 733.66 | 0.75
348.15 K, x1 = 0.4994 | 725.98 | 0.687
348.15 K, x1 = 0.6004 | 718.97 | 0.652
348.15 K, x1 = 0.6989 | 712.94 | 0.607
348.15 K, x1 = 0.8001 | 707.47 | 0.58
348.15 K, x1 = 0.8991 | 702.87 | 0.571
348.15 K, x1 = 1 | 699.47 | 0.549
353.15 K, x1 = 0.1011 | 760.07 | 0.981
353.15 K, x1 = 0.1989 | 748.76 | 0.855
353.15 K, x1 = 0.2998 | 738.45 | 0.765
353.15 K, x1 = 0.4001 | 729.57 | 0.696
353.15 K, x1 = 0.4994 | 721.9 | 0.642
353.15 K, x1 = 0.6004 | 714.9 | 0.611
353.15 K, x1 = 0.6989 | 708.9 | 0.572
353.15 K, x1 = 0.8001 | 703.47 | 0.546
353.15 K, x1 = 0.8991 | 698.94 | 0.54
353.15 K, x1 = 1 | 695.72 | 0.522
358.15 K, x1 = 0.1011 | 755.96 | 0.895
358.15 K, x1 = 0.1989 | 744.62 | 0.787
358.15 K, x1 = 0.2998 | 734.31 | 0.707
358.15 K, x1 = 0.4001 | 725.43 | 0.649
358.15 K, x1 = 0.4994 | 717.76 | 0.6
358.15 K, x1 = 0.6004 | 710.79 | 0.573
358.15 K, x1 = 0.6989 | 704.82 | 0.54
358.15 K, x1 = 0.8001 | 699.43 | 0.516
358.15 K, x1 = 0.8991 | 694.99 | 0.512
358.15 K, x1 = 1 | 691.96 | 0.497
363.15 K, x1 = 0.1011 | 751.78 | 0.82
363.15 K, x1 = 0.1989 | 740.43 | 0.726
363.15 K, x1 = 0.2998 | 730.12 | 0.657
363.15 K, x1 = 0.4001 | 721.24 | 0.605
363.15 K, x1 = 0.4994 | 713.59 | 0.562
363.15 K, x1 = 0.6004 | 706.64 | 0.54
363.15 K, x1 = 0.6989 | 700.7 | 0.512
363.15 K, x1 = 0.8001 | 695.37 | 0.49
363.15 K, x1 = 0.8991 | 691.02 | 0.487
363.15 K, x1 = 1 | 688.18 | 0.475
